Measurements reported in patent US20190169140A1, “IDO1 INHIBITOR AND PREPARATION METHOD AND APPLICATION THEREOF” (SHANDONG LUYE PHARMACEUTICAL CO., LTD., priority 2016, published 2019).
pIC50: −log10 of the molar value.

How the values were obtained:
[1] = target: T1, IDO1 enzyme in Hela cells (Homo sapiens, UniProt P14902); test: Test of hIDO1 for cytological activity (Hela cell kynurenine by LCMS, interferon-γ induced); assay type: cell-based; settings: interferon-γ 100 ng/ml, 20 hours
T1 construct: endogenous in cells; host or cells: Hela cells, induced with recombinant human interferon-γ
Description: 2. Test of hIDO1 for Cytological Activity
Changes in Hela cell kynurenine were detected by an LCMS method. With an IC50 value of a compound as an index, an inhibitory effect of the compound on IDO1 enzyme was evaluated.
The culture medium, trypsin, and DPBS were preheated in water bath at 37° C. The culture medium was removed by sucking from cell culture, followed by cleaning the cell culture with 10 mL of DPBS; the preheated trypsin was added to the culture flask, which was revolved to make the culture flask covered by trypsin uniformly, and placed into an incubator at 37° C. with 5% CO2 for digestion for 1-2 minutes; 10-15 mL of the culture medium was used to suspend cells each T150, followed by centrifugation at 800 rpm for 5 minutes. 10 mL of the culture medium was used to resuspend the cells. 1 mL of the cell resuspension was pipetted, and counted with Vi-cell; the Hela cells were diluted to 5×10^5/mL with the culture medium, 80 μL of the diluted Hela cells were added to the 96-well cell plate, and incubated in the an incubator at 37° C. with 5% CO2 for 5-6 hours.
The compound was diluted with DMSO to 1 mM, with 9 gradients, each 3-fold dilution, in duplicate. 5 μL of the already diluted compound DMSO solution was added to the compound plate containing 95 μL of the culture medium. After even mixing, 10 μL of the mixture was transferred to the cell plate.
10 μL of recombinant human interferon-γ was added to result in a final concentration of 100 ng/ml, to induce expression of IDO1. Incubation was carried out in the 5% CO2 incubator at 37° C. for 20 hours. 4 μL of 5% (w/v) trichloroacetic acid was added, followed by even mixing and incubation at 50° C. for 30 minutes. After centrifugation at 2400 rpm for 10 minutes, 40 μL of a supernatant was added to a 96-well V-bottom plate, followed by addition of a precipitant. Centrifugation was carried out at 4000 rpm for 10 minutes after even mixing. 100 μL of the supernatant was transferred to a new 96-well V-bottom plate. A content of kynurenine was detected through LCMS.
A reference well to which the interferon-γ was added but no compound was added was set to have an inhibition rate of 0%, and a reference well to which no Hela cell was added was set to have an inhibition rate of 100%. Data was analyzed with XLFit 5 to calculate an IC50 value of the compound.

[2] = target: T2, recombinant human IDO1 enzyme (Homo sapiens, UniProt P14902); test: Test of hIDO1 for enzymatic activity in vitro (NFK Green fluorescence); assay type: biochemical
T2 construct: purchased NTRC (Netherlands Translational Research Center) NTRC-hIDO-10K
Description: 1. Test of hIDO1 for Enzymatic Activity In Vitro
1.1 Purpose of Experiment:
Changes in production of NFK, an IDO1 enzymatic metabolite were detected with NFK Green™ fluorescent molecules. With an IC50 value of a compound as an index, an inhibitory effect of the compound on recombinant human IDO1 enzyme was evaluated.
The compound was diluted with dimethyl sulfoxide (DMSO) to 1 mM, with 10 gradients, each 3-fold dilution, in duplicate. 48 μL of 50 mM phosphate buffer, having pH of 6.5, was transferred by the Bravo automatic liquid processing platform to the compound plate. Then 2 μL of an already diluted compound/DMSO solution was added. After even mixing, 10 μL of the resultant mixture was transferred to the enzymatic reaction plate.
IDO1 enzyme was diluted to 20 nM in a reaction buffer (50 mM phosphate buffer with pH of 6.5, 0.1% of Tween-20, 2% of glycerol, 20 mM ascorbic acid, 20 μg/ml catalase, and 20 μM methylene blue), 20 μL of the diluted IDO1 enzyme was transferred to the enzymatic reaction plate, and incubated at 23° C. for 30 minutes. 10 μL of 400 μM L-type tryptophan substrate was added to start reaction. The incubation lasted at 23° C. for 90 minutes. 10 μL of NFK Green™ fluorescent dye was added. The resultant mixture was sealed with the plate sealing film. After incubation at 37° C. for 4 hours, an Envision multi-functional plate reader was used for reading (Ex 400 nm/Em 510 nm).
A reference well to which the IDO1 enzyme was added but no compound was added was set to have an inhibition rate of 0%, and a reference well to which no IDO1 enzyme was added was set to have an inhibition rate of 100%. Data was analyzed with XLFit 5 to calculate an IC50 value of the compound.

[3] = Test for permeability across MDR1; assay type: in vitro ADME; settings: dog, MDCK-MDR1
Description: Test for Permeability Across MDR1
A sample for test was dissolved in dimethyl sulfoxide (DMSO) or other suitable solvents, to be prepared into 10 mM stock solution. A suitable internal standard (IS) was dissolved in acetonitrile (ACN) or other organic solvents as a stop solution. Specific information would be described in a research report.
Fenoterol, propranolol, and digoxin acted as low-permeability control, high-permeability control, and P-gp substrate in the present research. The stock solutions of these compounds were prepared with DMSO, stocked at 2-8° C., and valid for use within 3 months.
In the present project, a Hank's balanced salt buffer containing 10 mM HEPES was used as a transport buffer.
MDR1-MDCK II cells were cultivated using α-MEM culture media (α-Minimum Essential Media), with a culture condition of 37±1° C., 5% CO2, and saturated relative humidity. Afterwards, the cells were inoculated into a BD Transwell-96-well plate (BD Gentest), with an inoculation density of 2.3×10^5 cells/cm^2, then the cells were placed in a carbon dioxide incubator to be incubated for 4-7 days, and then used for a transport experiment.
A solution to be used was placed in a 37±1° C. water bath kettle to be pre-incubated for 30 minutes. The donor solution and the receiver solution were respectively added to corresponding sides of wells of cell plate (to an apical side and a basolateral side, 75 μL and 250 μL of samples were added respectively), and experiment of bidirectional transport was started. After the addition of the samples, the cell plate was placed in a 37±1° C., 5% CO2 incubator with saturated relative humidity to be incubated for 150 minutes.
The samples were all centrifuged at 3220 g for 10 minutes after being shaken in a vortex manner. A suitable volume of a supernatant was transferred to a sample analyzing plate. If analysis was not carried out immediately after the plate was sealed, the plate was stored at 2-8° C. The analysis was carried out through a method of LC/MS/MS.
The sample for test, fenoterol control, propranolol control, and digoxin were analyzed in a semiquantitative manner, and specific values of analytes to a peak area of the internal standard were taken as concentration of the controls.

T2 sequence (P14902 whole entry): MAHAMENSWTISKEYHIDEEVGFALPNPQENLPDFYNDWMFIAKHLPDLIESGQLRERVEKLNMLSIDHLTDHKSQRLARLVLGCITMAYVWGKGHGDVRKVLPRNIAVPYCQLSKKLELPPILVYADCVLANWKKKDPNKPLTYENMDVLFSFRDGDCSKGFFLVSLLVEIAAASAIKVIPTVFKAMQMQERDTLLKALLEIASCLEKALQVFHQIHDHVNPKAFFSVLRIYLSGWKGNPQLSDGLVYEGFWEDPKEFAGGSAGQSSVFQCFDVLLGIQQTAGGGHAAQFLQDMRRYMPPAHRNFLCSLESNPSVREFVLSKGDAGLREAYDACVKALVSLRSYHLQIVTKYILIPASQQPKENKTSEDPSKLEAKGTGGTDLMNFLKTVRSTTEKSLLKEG
T1 sequence (P14902 whole entry): as above

Structure (SMILES) | pIC50 [1] | pIC50 [2] | Papp A→B at 150 min, 2 µM [3] | Papp B→A at 150 min, 2 µM [3]
CSc1nonc1/C(=N/O)Nc1ccc(F)c(Br)c1 [Compound 0068] | 7.54 | 6.95 | – | –
CS(=O)(=O)NCCOc1nonc1/C(=N/O)Nc1ccc(F)c(Br)c1 [Compound 0106] | 7.43 | 6.98 | – | –
NS(=O)(=O)NCCCOc1nonc1/C(=N/O)Nc1ccc(F)c(Br)c1 [Compound 0118] | 7.19 | 7.26 | – | –
CNC(=O)COc1nonc1/C(=N/O)Nc1ccc(F)c(Br)c1 [Compound 0139] | 7.00 | 6.58 | – | –
NCCOc1nonc1/C(=N/O)Nc1ccc(F)c(Br)c1 [Compound 0147] | 6.91 | 7.15 | – | –
O=S(=O)(O)NCCOc1nonc1/C(=N/O)Nc1ccc(F)c(Br)c1 [Compound 0148] | 6.80 | 6.83 | – | –
O=CNCCOc1nonc1/C(=N/O)Nc1ccc(F)c(Br)c1 [Compound 0153] | 7.08 | 6.81 | – | –
OCCOc1nonc1/C(=N/O)Nc1ccc(F)c(Br)c1 [Compound 0177] | 7.27 | 6.55 | – | –
O=C(NCCSc1nonc1/C(=N/O)Nc1ccc(F)c(Br)c1)C1CC1 [Compound 0236] | 7.26 | 6.89 | – | –
CNS(=O)(=O)NCCSc1nonc1/C(=N/O)Nc1ccc(F)c(Br)c1 [Compound 0240] | 7.58 | 6.89 | – | –
N#CCC(=O)NCCSc1nonc1/C(=N/O)Nc1ccc(F)c(Br)c1 [Compound 0249] | 7.52 | 6.78 | – | –
COC(=O)NCCSc1nonc1/C(=N/O)Nc1ccc(F)c(Br)c1 [Compound 0250] | 7.57 | 6.86 | – | –
O=C(CSc1nonc1/C(=N/O)Nc1ccc(F)c(Br)c1)NO [Compound 0260] | 7.50 | 7.13 | – | –
NC(=O)CCSc1nonc1/C(=N/O)Nc1ccc(F)c(Br)c1 [Compound 0262] | 7.15 | 7.05 | – | –
NS(=O)(=O)NCCSc1nonc1/C(=N/O)Nc1ccc(F)c(I)c1 [Compound 0273] | 7.46 | 6.84 | – | –
O=C(CO)NCCSc1nonc1/C(=N/O)Nc1ccc(F)c(Br)c1 [Compound 0293] | 7.53 | 7.22 | – | –
NS(=O)(=O)NCCSc1nonc1/C(=N/O)Nc1cccc(I)c1 [Compound 0295] | 7.33 | 6.91 | – | –
N=C(N)NCCSc1nonc1/C(=N/O)Nc1ccc(F)c(Br)c1 [Compound 0383] | 6.98 | 7.00 | – | –
N=C(N)NC(=N)NCCSc1nonc1/C(=N/O)Nc1ccc(F)c(Br)c1 [Compound 0384] | 6.82 | 6.76 | – | –

These reach a higher pIC50 [1]. Values come first.

pIC50 [1] | pIC50 [2] | Papp A→B at 150 min, 2 µM [3] | Papp B→A at 150 min, 2 µM [3] | Structure (SMILES)
7.60 | 6.96 | – | – | COc1nonc1/C(=N/O)Nc1ccc(F)c(Br)c1 [Compound 0052]
7.60 | 6.83 | – | – | NS(=O)(=O)NCCOc1nonc1C(=NO)Nc1ccc(F)c(C(F)F)c1 [Compound 0151]
7.87 | 6.80 | – | – | NS(=O)(=O)NCCSc1nonc1/C(=N/O)Nc1ccc(F)c(C(F)(F)F)c1 [Compound 0157]
7.73 | 6.56 | – | – | NS(=O)(=O)N[C@H]1C[C@@H](Oc2nonc2/C(=N/O)Nc2ccc(F)c(Br)c2)C1 [Compound 0225]
8.40 | 6.99 | 67.8 nm/s | 105 nm/s | CCS(=O)(=O)NCCSc1nonc1/C(=N/O)Nc1ccc(F)c(Br)c1 [Compound 0228]
7.95 | 7.10 | – | – | CS(=O)(=O)NCCSc1nonc1/C(=N/O)Nc1ccc(F)c(Br)c1 [Compound 0229]
7.72 | 6.96 | – | – | CNC(=O)NCCSc1nonc1/C(=N/O)Nc1ccc(F)c(Br)c1 [Compound 0233]
8.02 | 7.11 | – | – | O=C(NCCSc1nonc1/C(=N/O)Nc1ccc(F)c(Br)c1)NC1CC1 [Compound 0234]
8.07 | 7.37 | – | – | CNC(=O)CSc1nonc1/C(=N/O)Nc1ccc(F)c(Br)c1 [Compound 0237]
7.86 | 7.07 | – | – | CNC(=O)CCSc1nonc1/C(=N/O)Nc1ccc(F)c(Br)c1 [Compound 0238]
7.83 | 7.13 | – | – | O=CNCCSc1nonc1/C(=N/O)Nc1ccc(F)c(Br)c1 [Compound 0245]
7.77 | 7.02 | – | – | O=C(CSc1nonc1/C(=N/O)Nc1ccc(F)c(Br)c1)NC1CC1 [Compound 0247]
8.15 | 7.35 | – | – | NC(=O)CSc1nonc1/C(=N/O)Nc1ccc(F)c(Br)c1 [Compound 0251]
7.89 | 7.16 | – | – | O=C(NCCSc1nonc1/C(=N/O)Nc1ccc(F)c(Br)c1)C(F)F [Compound 0287]
7.63 | 7.26 | – | – | NC(=O)NCCSc1nonc1/C(=N/O)Nc1cccc(I)c1 [Compound 0309]
7.89 | 7.01 | – | – | N#C/N=C(\N)NCCSc1nonc1/C(=N/O)Nc1ccc(F)c(Br)c1 [Compound 0310]
